Measured values from patent publication US20190046552A1, “COMPOSITIONS AND METHODS FOR THE TREATMENT OF HCV INFECTION” (priority 2015, published 2019).
Like-named read-outs stand apart in the source and are kept apart here.

Key:
HCV RNA = assay: Part B (MAD): antiviral response (HCV RNA viral load) in treatment naive subjects with chronic HCV infection; type: in vivo, human
Source text: Part B was a blinded, randomized, placebo-controlled MAD study consisting of four cohorts of eight subjects randomized 6:2 to receive Formula (IIa) or placebo. A total of 30 treatment naïve subjects with CHC infection were enrolled in and a total of 29 subjects (22 subjects administered Formula (IIa) and 7 subjects administered placebo) completed Part B of the study. One subject administered placebo withdrew from the study on Day 2. Subjects infected with HCV-1 and HCV-3 genotypes were enrolled, and no subjects infected with HCV-2 participated in the study. To control for the possible effect of the IL28b genotype, the number of subjects with CC alleles was capped at three per cohort.
(§1) The starting dose was determined by the SRC based on review of all safety and any available PK/PD data from Part A. All subjects were dosed in the fasted state with Formula (IIa) daily, from Day 1 until […]. All subjects had nothing by mouth other than water for at least 10 hours prior to daily dosing and for 4 hours thereafter. In Part B, all subjects were administered the study medication orally with approximately 240 mL of water at the same time every day (+/−10 minutes).
A subset of blood samples shown in Table 3 above was used for the PK evaluation of plasma trough concentrations (Table 4). […]

[1] = Part A (SAD): plasma PK of Formula (IIa) and its metabolites after a single oral dose of Formula (IIa), fed or fasted; type: in vivo, human; conditions: for Cmax / AUC(0-t) / Tmax / AUC(0-inf) / half-life: human, in vivo; for Cmax / AUC(0-t) / Tmax: po
Procedure: The study was a Phase 1, two-part, first-in-human study of single (Part A) and multiple (Part B) ascending doses (SAD and MAD) of Formula (IIa) at doses of 100-900 mg given as a monotherapy for up to 7 days. Subjects were enrolled at multiple sites in Australia and New Zealand. For both Parts A and B, the Safety Review Committee (SRC) determined whether dose escalation occurred after review of all safety data and any available PK/PD data. Part A was an open label, randomized SAD study consisting of four cohorts of two subjects each, with one subject randomized to be dosed in the fed state and the other in the fasted state, at doses of 100 mg to 800 mg Formula (IIa). All subjects were given a single dose of Formula (IIa) orally.
(§2) All plasma PK calculations were performed using actual time points calculated relative to the time of last drug administration.
(§3) PK analysis was conducted for all enrolled subjects that received any dose of Formula (IIa) with sufficient plasma sample data to assess PK parameters. […] Data analysis was performed using a validated version of WinNonlin® Enterprise (Version 5.2) software, and summary tables and figures were generated using a validated version of WinNonlin® Autopilot™ (Version 1.1.1) and other reporting tools, including SigmaPlot®.

[2] = test system: HCV replicon cell line AVA5 [sub-genomic (CON1), genotype 1b]; assay: 3-day HCV replicon antiviral assay (blot hybridization of intracellular HCV RNA), alone and with sofosbuvir; type: cell-based; conditions: Hepatitis C virus, Ava5, 72 h, read-out: IC50 (intracellular HCV RNA)
[3] = Part B (MAD): plasma PK of Formula (IIa) and its metabolites after once-daily oral Formula (IIa) for 7 days, fasted; type: in vivo, human; conditions: fasted, Day 7, plasma; for Cmin: arithmetic mean (CV %); for Tmin: median (min, max)
Procedure: Part B was a blinded, randomized, placebo-controlled MAD study consisting of four cohorts of eight subjects randomized 6:2 to receive Formula (IIa) or placebo. […] To control for the possible effect of the IL28b genotype, the number of subjects with CC alleles was capped at three per cohort.
as §1
A subset of blood samples shown in Table 3 above was used for the PK evaluation of plasma trough concentrations (Table 4). In addition, blood sample assessment of antiviral response was collected according to the following sampling schedule for Part B (Table 4).
as §2, §3

For `CO[C@H]1C(OP(=O)(OC[C@H]2O[C@@H](n3cnc4c(N)ncnc43)CC2O)SCOC(=O)OC(C)C)[C@@H](CO)O[C@H]1n1ccc(=O)[nH]c1=O` (stereo partly shown) [Formula (IIa)], the “Peak individual viral load drop” value (HCV RNA; 200 mg Formula (IIa) QD) was 1.5 log10, the “Peak individual viral load drop” value (HCV RNA; 400 mg Formula (IIa) QD) was 1.9 log10 and the Cmax ([1]; 200 mg, single oral 200 mg Formula (IIa), fasted, plasma, N=1) was 0.577 ng/mL. The AUC(0-t) ([1]; 200 mg, single oral 200 mg Formula (IIa), fasted, plasma, N=1, read-out: AUC0-24) was 0.433 ng·h/mL, the AUC(0-t) ([1]; 200 mg, single oral 200 mg Formula (IIa), fasted, plasma, N=1, read-out: AUC0-t) was 0.289 ng·h/mL and the Tmax ([1]; 200 mg, single oral 200 mg Formula (IIa), fasted, plasma, N=1, read-out: Tmax) was 1 h. For the same molecule, the Cmax ([1]; 200 mg, single oral 200 mg Formula (IIa), fed, plasma, N=1) was 0.261 ng/mL, the AUC(0-t) ([1]; 200 mg, single oral 200 mg Formula (IIa), fed, plasma, N=1, read-out: AUC0-24) was 0.131 ng·h/mL and the AUC(0-t) ([1]; 200 mg, single oral 200 mg Formula (IIa), fed, plasma, N=1, read-out: AUC0-t) was 0.0653 ng·h/mL. For the same molecule, the Tmax ([1]; 200 mg, single oral 200 mg Formula (IIa), fed, plasma, N=1, read-out: Tmax) was 2 h, the Cmax ([1]; 400 mg, single oral 400 mg Formula (IIa), fasted, plasma, N=1) was 1.16 ng/mL and the AUC(0-t) ([1]; 400 mg, single oral 400 mg Formula (IIa), fasted, plasma, N=1, read-out: AUC0-24) was 1.37 ng·h/mL. It also gave an AUC(0-t) ([1]; 400 mg, single oral 400 mg Formula (IIa), fasted, plasma, N=1, read-out: AUC0-t) of 1.31 ng·h/mL, a Tmax ([1]; 400 mg, single oral 400 mg Formula (IIa), fasted, plasma, N=1, read-out: Tmax) of 2.5 h and a Cmax ([1]; 400 mg, single oral 400 mg Formula (IIa), fed, plasma, N=1) of 0.574 ng/mL. For the same molecule, the AUC(0-t) ([1]; 400 mg, single oral 400 mg Formula (IIa), fed, plasma, N=1, read-out: AUC0-24) was 1.13 ng·h/mL, the AUC(0-t) ([1]; 400 mg, single oral 400 mg Formula (IIa), fed, plasma, N=1, read-out: AUC0-t) was 1.07 ng·h/mL and the Tmax ([1]; 400 mg, single oral 400 mg Formula (IIa), fed, plasma, N=1, read-out: Tmax) was 1.5 h. For the same molecule, the Cmax ([1]; 800 mg, single oral 800 mg Formula (IIa), fasted, plasma, N=1) was 0.734 ng/mL, the AUC(0-t) ([1]; 800 mg, single oral 800 mg Formula (IIa), fasted, plasma, N=1, read-out: AUC0-24) was 0.809 ng·h/mL and the AUC(0-t) ([1]; 800 mg, single oral 800 mg Formula (IIa), fasted, plasma, N=1, read-out: AUC0-t) was 0.751 ng·h/mL. For the same molecule, the Tmax ([1]; 800 mg, single oral 800 mg Formula (IIa), fasted, plasma, N=1, read-out: Tmax) was 1 h, the Cmax ([1]; 800 mg, single oral 800 mg Formula (IIa), fed, plasma, N=1) was 0.486 ng/mL and the AUC(0-t) ([1]; 800 mg, single oral 800 mg Formula (IIa), fed, plasma, N=1, read-out: AUC0-24) was 0.96 ng·h/mL. For the same molecule, the AUC(0-t) ([1]; 800 mg, single oral 800 mg Formula (IIa), fed, plasma, N=1, read-out: AUC0-t) was 0.9 ng·h/mL, the Tmax ([1]; 800 mg, single oral 800 mg Formula (IIa), fed, plasma, N=1, read-out: Tmax) was 1.5 h and the Tmax ([1]; single oral Formula (IIa), subjects dosed under fasted conditions, read-out: Individual Tmax range) was 1 to 2.5 h. For the same molecule, the Tmax ([1]; single oral Formula (IIa), subjects dosed under fed conditions, read-out: Individual Tmax range) was 1.5 to 2 h, the AUC(0-inf) ([1]; single oral 400 mg Formula (IIa), fed, plasma, N=1) was 1.43 ng·h/mL and the half-life ([1]; single oral 400 mg Formula (IIa), fed, plasma, N=1, read-out: t1/2 (converted)) was 1.16 h. It also gave an AUC(0-inf) ([1]; single oral 800 mg Formula (IIa), fed, plasma, N=1) of 1.39 ng·h/mL, a half-life ([1]; single oral 800 mg Formula (IIa), fed, plasma, N=1, read-out: t1/2 (converted)) of 1.42 h and a half-life ([1]; two fed subjects (400 mg and 800 mg dose cohorts), read-out: half-life (terminal phase), range) of 1.16 to 1.42 h. For the same molecule, the “measurable Formula (IIa) concentrations in plasma” value ([1]; single oral 100 mg Formula (IIa), fasting and fed) was “no measurable Formula (IIa) concentrations”, the “AUC0-t in the fasted subject higher than the fed subject” value ([1]; single oral 200 mg Formula (IIa)) was 4 fold and the “peak plasma concentrations in the fasted subjects, times higher compared to the fed subjects” value ([1]; single oral 400 mg Formula (IIa)) was 2.0 times. For the same molecule, the “peak plasma concentrations in the fasted subjects, times higher compared to the fed subjects” value ([1]; single oral 800 mg Formula (IIa)) was 1.5 times, the “measurable concentrations of Formula (IIa) in plasma” value ([1]; single oral dose levels of 100 mg and 200 mg) was “did not produce measurable concentrations” and the IC50 [2] was 31.7 nM. For the same molecule, the Cmin ([3]; 200 mg Formula (IIa) QD oral) was 0.00 (NC) ng/ml, the Tmin ([3]; 200 mg Formula (IIa) QD oral) was 0.00 h and the Cmin ([3]; 400 mg Formula (IIa) QD oral) was 0.00 (NC)^ ng/ml. It also gave a Tmin ([3]; 400 mg Formula (IIa) QD oral) of 0.00 h.
